Measured values as given in patent US20260001875A1, “AMINOPYRIMIDINYL DERIVATIVES FOR THE TREATMENT OF PARKINSON'S DISEASE” (UNIVERSITY OF DUNDEE, priority 2022, published 2026).
Entries after “also recorded” stand apart in the source; their conditions may differ. Where two headings read alike, the source gives them in different places.

What was measured:
[1] = molecular target: T1, LRRK2^WT (Mus musculus, UniProt Q5S006); assay: Western blot LRRK2 degradation in WT MEFs; type: cell-based; details: for Dmax on WT MEFs / DC50 / Dmax: dose response; for Dmax: read-out: Dmax on WT MEFs
T1 construct: endogenous in cells; host or cells: primary wild-type mouse embryonic fibroblasts (MEFs)

[2] = tested on: LRRK2^WT; assay: Western blot LRRK2 degradation in WT MEFs; type: cell-based, mouse; details: for LRRK2 degradation (in words): WT MEFs and LRRK2^G2019S MEFs
[3] = tested on: Rab10 pThr73; assay: Rab10 Thr73 dephosphorylation (immunoblot) in WT MEFs; type: cell-based, mouse; details: for inhibition at 0.033 µM / inhibition at 1 µM: read-out: pRab10 inhibited in WT MEFs; for EC50: dose response, read-out: WT MEFs pRab10-dephosphrylation EC50
Summary of the method: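 Wild-type mouse embryonic fibroblasts in 6-well plates were treated with LRRK2 PROTACs, with two biological replicates per condition. Cells were washed in PBS and lysed on ice in buffer containing phosphatase and protease inhibitors plus 1% Triton X-100, then clarified at 15,000 g. Rab10 Thr73 phosphorylation was measured by quantitative immunoblotting of 15 to 20 μg protein on 4-12% Bis-Tris gels.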

[4] = tested on: LRRK2 pSer935; assay: LRRK2 Ser935 dephosphorylation (immunoblot) in WT MEFs; type: cell-based, mouse; details: for EC50: Mus musculus, dose response, read-out: WT MEFs pSer935 LRRK2-dephosphrylation EC50; for T1/2 WT-pSer935-LRRK2: WT MEFs
Method: Western blot degradation assays for the LRRK2 protacs were performed with WT and PD-associated LRRK2 [G2019S] mouse embryonic fibroblasts (MEFs). The second-generation PROTACs were tested in parallel with the first generation PROTACs SD75, SD82, and SD100. The compounds were tested at 33 nM or […] concentrations for 4 hours or 24 hours, running two biological replicates per condition and achieving quantifications representative of both replicates. Analysis by quantitative immunoblotting was performed with readouts of the total LRRK2 (antibody recognizes epitope in C-terminus of protein), Rab10 pThr73 (physiological substrate) and LRRK2 pSer935 (biomarker phosphorylation site).
Primary MEFs were generated as described in a previous study (Wiggin et al., Mol. Cell Biol. 2002 April; 22(8):2871-81.). Briefly, the uterine horn was collected from adult female mice at day E12.5 and transferred to a 10 cm tissue culture dish containing cold PBS. Two forceps were used to tear the yolk sacs to isolate each embryo. Forceps were cleaned thoroughly with 70% ethanol between each embryo isolation. The embryos were culled, and a tissue piece was collected in a PCR tube for genotyping. The red tissue of the embryo, which grows to become the heart and liver, was removed. The remainder of the embryo was minced with a scalpel blade and incubated with 7.5 ml trypsin-EDTA solution for 10 minutes in a 37° C. tissue culture CO2 incubator. The dish was removed from the incubator and checked under a light microscope for single cells. 7.5 ml complete media was added to the trypsinised cells, and the cell suspension was transferred to a 15 ml Falcon tube, centrifuged at 1200 rpm for 5 minutes at room temperature. The trypsin was aspirated, the cell pellet was resuspended in 5 ml fresh complete media, and the cell suspension was plated in a 60 mm tissue culture dish and incubated in a 37° C., 5% CO2 tissue culture incubator. The MEFs at this stage were considered as passage 0 and were passaged and expanded for experimental use once the genotype was confirmed by allelic sequencing and immunoblotting. MEFs were cultured in Dulbecco's modified Eagle medium (DMEM) containing 10% (v/v) fetal bovine serum (FBS), 2 mM L-glutamine, 100 U/ml penicillin, and 100 μg/ml streptomycin supplemented with 1× non-essential amino acids and 1 mM sodium pyruvate.
Culturing and passaging of adherent cell lines were carried out using aseptic technique in CL1 or CL2 (for PBMC isolation) biological safety cabinets. All cells were incubated in a 37° C. incubator with 5% CO2. Cell lines were regularly tested for mycoplasma contamination. For western blot assay, the cells were seeded in 6-well plates. After treating with testing compounds at indicated concentrations and time period, the media was removed and the cells were washed with PBS and lysed in 100 μl ice-cold complete lysis buffer containing 50 mM Tris-HCl pH 7.4, 1 mM EGTA, 10 mM 2-glycerophosphate, 50 mM sodium fluoride, 5 mM sodium pyrophosphate, 270 mM sucrose, supplemented with 1 μg/ml microcystin-LR, 1 mM sodium orthovanadate, complete EDTA-free protease inhibitor cocktail (Roche) and 1% (v/v) Triton X-100. The cells were immediately placed on ice and were scraped and collected into 1.5 ml Eppendorf tubes. Cell lysates were incubated on ice for 10 minutes prior to centrifugation at 15,000 g at 4° C. for 15 minutes. The cell pellet was discarded, and supernatant was collected for analysis by quantitative immunoblotting. For long term storage, the supernatant was flash frozen and stored at −80° C. Protein concentrations of cell lysates were determined using the Bradford assay.
Cell lysates containing a quarter of a volume of 4× NuPAGE LDS sample buffer (NP0007) supplemented with 5% β-mercaptoethanol, were heated at 95° C. for 5 minutes. […]

[5] = molecular target: VHL (Homo sapiens, UniProt P40337); assay: Fluorescence polarization competitive binding assay; details: for Ki: displacement of FAM-labelled HIF-1α peptide from VCB
Method: FP competitive binding assays were performed following the method described previously (Bond et al, J. Med. Chem. 2021, 64 (20), 15477-15502.). All the measurements were taken on a PHERstar (BMG LABTECH) plate reader installed with a FP filter that sets excitation and emission wavelengths at 485 nm and 520 nM separately. Each well of 384-well plate (Coring 3575) contains 10 nM VCB protein, 5 nM FAM-lableled HIF-1α peptide (FAM-DEALAHyp[…], “JC9”), and decreasing concentrations of PROTACs (14 concentrations with 2-fold serial dilution starting from 250 μM) in FP assay buffer (100 mM Bis-Tris propane, 100 mM NaCl, 1 mM TCEP, pH 7) with a final DMSO concentration of 5%. The control wells containing the VCB and JC9 with no compound are set as the maximum signals (zero displacement). And the control wells containing JC9 in the absence of protein are set as the minimum signals. Control values were used to obtain the percentage of displacement which was graphed against Log [Compound]. Average IC50 values were determined for each titration using nonlinear regression analysis with Prism (v.9.3.1).

[6] = time course at 1000 nM, WT MEFs
[7] = Mus musculus, 33 nM/4 h treatment
[8] = Mus musculus, 1 μM/4 h treatment
[9] = Mus musculus, 1 μM/24 h treatment
[10] = Mus musculus, 33 nM/24 h treatment
[11] = Mus musculus, time course at 300 nM, WT MEFs

Row | SMILES | LRRK2 degradation (in words) [2] | inhibition at 0.033 µM [3, 7] | inhibition at 1 µM [3, 8] | inhibition at 1 µM [3, 9] | Ki [5] | DC50 ([1]; 4 h treatment) | Dmax on WT MEFs ([1]; 4 h treatment) | Dmax ([1]; 4 h treatment) | T1/2 of LRRK2^WT degradation ([1]; time course at 300 nM, WT MEFs) | inhibition at 0.033 µM [3, 10] | Dmax at 0.3 µM [3, 11] | EC50 ([4]; 4 h treatment) | T1/2 WT-pSer935-LRRK2 ([4]; time course at 300 nM) | also measured
1 | CNc1nc(Nc2ccc(C(=O)N3CCN(CCOCCOCCSC(C)(C)[C@H](NC(=O)C4(F)CC4)C(=O)N4C[C@H](O)C[C@H]4C(=O)NCc4ccc(-c5scnc5C)cc4)CC3)cc2OC)ncc1Cl [SD75, (2S,4R)-1-((R)-3-((2-(2-(2-(4-(4-((5-chloro-4-(methylamino)pyrimidin-2-yl)amino)-3-methoxybenzoyl)piperazin-1-yl)ethoxy)ethoxy)ethyl)thio)-2-(1-fluorocyclopropane-1-carboxamido)-3-methylbutanoyl)-4-hydroxy-N-(4-(4-methylthiazol-5-yl)benzyl)pyrrolidine-2-carboxamide] | moderate LRRK2 degradation; also recorded: partial LRRK2 degradation | 0 to 25% | 18 to 90% | 30 to 90% | 820 nM |  |  |  |  |  |  |  |  | Dmax on WT MEFs ([1]; 24 h treatment): 50%; T1/2 of LRRK2^WT degradation [1, 6]: 5.1 h; Selectivity Index (pRab10 dephosphorylation, WT vs G2019S MEFs) ([3]; 24 h): 6.0; Dmax at 1 µM ([3]; Mus musculus, time course at 1000 nM, WT MEFs): 41%; EC50 ([3]; 24 h treatment): 2270 nM; T1/2 of Rab10 dephosphorylation (WT) [3, 6]: 6.7 h; Selectivity Index (pSer935-LRRK2 dephosphorylation, WT vs G2019S MEFs) ([4]; 24 h): 2.7; EC50 ([4]; 24 h treatment): 745 nM; T1/2 WT-pSer935-LRRK2 ([4]; time course at 1000 nM): 3.6 h
2 | CNc1nc(Nc2ccc(C(=O)N3CCN(C[C@H]4CC[C@@H](CSC(C)(C)[C@H](NC(=O)C5(F)CC5)C(=O)N5C[C@H](O)CC5C(=O)NCc5ccc(-c6scnc6C)cc5)CC4)CC3)cc2OC)ncc1Cl (stereo partly shown) [XL01134] | hook effect | 0 to 40% | 10 to 95% | 30 to 100% | 160 nM | 32 nM | 58% | 59% | 2.7 h | 0 to 60% | 68% | 35 nM | 0.7 h | EC50 ([3]; Mus musculus, 4 h treatment): 74 nM; T1/2 of Rab10 dephosphorylation (WT) ([3]; time course at 300 nM, WT MEFs): 2.1 h
3 | CNc1nc(Nc2ccc(C(=O)N3CCN(C[C@H]4CC[C@H](CSC(C)(C)[C@H](NC(=O)C5(F)CC5)C(=O)N5C[C@@H](O)CC5C(=O)NCc5ccc(-c6scnc6C)cc5)CC4)CC3)cc2OC)ncc1Cl (stereo partly drawn) [Cis-XL01126, (2S,4S)-1-((R)-3-((((1r,4R)-4-((4-(4-((5-chloro-4-(methylamino)pyrimidin-2-yl)amino)-3-methoxybenzoyl)piperazin-1-yl)methyl)cyclohexyl)methyl)thio)-2-(1-fluorocyclopropane-1-carboxamido)-3-methylbutanoyl)-4-hydroxy-N-(4-(4-methylthiazol-5-yl)benzyl)pyrrolidine-2-carboxamide] |  |  |  |  | > 50000 nM |  |  |  |  |  |  |  |  | binding to VHL (in words) ([5]; fluorescence polarization): does not bind to VHL E3 ligase; also recorded: did not displace the fluorescent tracer
4 | CNc1nc(Nc2ccc(C(=O)N3CCN(C[C@H]4CC[C@H](CSC(C)(C)[C@H](NC(=O)C5(F)CC5)C(=O)N5C[C@H](O)CC5C(=O)NCc5ccc(-c6scnc6C)cc5)CC4)CC3)cc2OC)ncc1Cl (stereo partly drawn) [XL01126, (2S,4R)-1-((R)-3-((((1R,4R)-4-((4-(4-((5-chloro-4-(methylamino)pyrimidin-2-yl)amino)-3-methoxybenzoyl)piperazin-1-yl)methyl)cyclohexyl)methyl)thio)-2-(1-fluorocyclopropane-1-carboxamido)-3-methylbutanoyl)-4-hydroxy-N-(4-(4-methylthiazol-5-yl)benzyl)pyrrolidine-2-carboxamide] | almost complete LRRK2 degradation |  |  |  | 908 to 5950 nM | 32 nM | 80-90% | 82% | 1.2 h | 0 to 60% | 84% | 18 nM | 0.6 h | Dmax at 0.3 µM ([1]; time course at 300 nM, WT MEFs): 82%; mechanism of induced LRRK2 degradation (in words) ([2]; pretreatment with VH101, MLN4924, MG132, WT and LRRK2^G2019S MEFs): dependent on the proteasome pathway
